Results: patent US20090217402A1, “METHODS AND COMPOSITIONS FOR MODULATING THE ACTIVITY OF PEPTIDASES IN MACROPHAGE AND MACROPHAGE-LIKE CELLS” (Emory University, priority 2005, published 2009)
“Also recorded” adds a separate entry of the source.

System: B16-F10 melanoma cells
Experiment: B16-F10 melanoma tumor growth in wild type and ACE 10/10 mice with co-administered drug
Format: in vivo, mouse
Conditions: intradermal B16-F10 melanoma
Experimental: Quantitation of B16-F10 tumor growth in wild type and ACE 10/10 mice was also conducted between groups in which the ACE inhibitor captopril was also administered. […] This experiment establishes that it is the presence of ACE in the ACE 10/10 mice that is important in the observed effects on tumor growth compared to wild-type mice.
B16-F10 tumor protocol. B16-F10 melanoma cell line was obtained from ATCC (American Type Culture Collection, Manassas, Va., USA). Cells were cultured in DMEM supplemented with 4 mM L-glutamine, 4.5 g/l glucose, 10% FBS, and antibiotics under humidified air with 5% CO2 at 37° C. […] The supernatant was removed, cell pellets were resuspended in PBS, and the cell number was counted.
Mice aged 8 to 12 weeks received exponentially growing cells (1×10^6) interdermally into the dorsal skin using a disposable 27-gauge needle under anesthesia (28 mg/kg avertin, intraperitoneally). Measurements of tumor size (longest and shortest diameters) were done using calipers at the 11th and 14th day, and body weight was measured at the day of inoculation (Day 0) and at harvesting (the 14th day), respectively. Tumor volume was calculated by the formula for a prolate spheroid according to the equation (L [longest diameter] H S2 [shortest diameter] H 0.52)=tumor volume.

SMILES	B16-F10 tumor growth (resistance of ACE 10/10 mice to melanoma)
C[C@H](CS)C(=O)N1CCC[C@H]1C(=O)O [captopril]	comparable to wild-type mice in terms of susceptibility to tumor growth
CCCCc1nc(Cl)c(CO)n1Cc1ccc(-c2ccccc2-c2nn[nH]n2)cc1 [losartan]	does not inhibit the ability of the ACE 10/10 mice to resist melanoma; also recorded: did not inhibit the ability of the ACE 10/10 mice to resist melanoma growth
